BindingDB's records for doi:10.1021/jm0301033 (Florida A and M University, 2004)

Tests used:
D(3) dopamine receptor = D(3) dopamine receptor (Homo sapiens, UniProt P35462); test: Displacement of [3H]7-OH-DPAT from human Dopamine receptor D3
D(4) dopamine receptor = biological target: T1, D(4) dopamine receptor (Homo sapiens, UniProt P21917); test: Displacement of [3H]spiperone from human Dopamine receptor D4
T1 sequence (P21917 whole entry): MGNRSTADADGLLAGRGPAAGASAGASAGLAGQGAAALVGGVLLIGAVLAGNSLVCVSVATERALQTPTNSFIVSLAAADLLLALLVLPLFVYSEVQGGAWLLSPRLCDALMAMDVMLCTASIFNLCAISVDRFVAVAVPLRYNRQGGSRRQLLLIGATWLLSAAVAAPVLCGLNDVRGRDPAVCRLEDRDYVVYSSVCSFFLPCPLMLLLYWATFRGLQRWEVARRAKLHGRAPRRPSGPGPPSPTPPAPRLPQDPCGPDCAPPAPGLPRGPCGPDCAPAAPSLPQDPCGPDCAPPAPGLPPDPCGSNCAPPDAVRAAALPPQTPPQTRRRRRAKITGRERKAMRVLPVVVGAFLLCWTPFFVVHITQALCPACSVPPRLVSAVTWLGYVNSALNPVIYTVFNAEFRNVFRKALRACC

Chain of D(3) dopamine receptor (P35462 as listed by the source): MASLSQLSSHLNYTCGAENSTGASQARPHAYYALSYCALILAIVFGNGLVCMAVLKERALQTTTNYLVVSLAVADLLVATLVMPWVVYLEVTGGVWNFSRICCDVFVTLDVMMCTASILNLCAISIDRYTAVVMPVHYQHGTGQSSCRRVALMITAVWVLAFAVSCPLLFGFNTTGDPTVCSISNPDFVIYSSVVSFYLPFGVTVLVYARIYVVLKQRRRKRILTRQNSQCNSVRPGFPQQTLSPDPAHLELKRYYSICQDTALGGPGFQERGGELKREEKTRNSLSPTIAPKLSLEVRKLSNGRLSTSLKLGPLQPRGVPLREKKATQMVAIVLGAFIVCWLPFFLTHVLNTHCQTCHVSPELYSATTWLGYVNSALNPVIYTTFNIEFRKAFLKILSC

Q: For O=C(CCCN1CCC(CO)(c2ccc(Cl)cc2)CC1)c1ccc(F)cc1, which pKi (D(3) dopamine receptor) is on record?
A: 6.96

Q: And the pKi (D(4) dopamine receptor)?
A: 7.11

Q: O=C(CCCN1CCC(c2ccc(Cl)cc2)CC1)c1ccc(F)cc1 was tested. Which pKi (D(3) dopamine receptor) did it give?
A: 7.34

Q: And the pKi (D(4) dopamine receptor)?
A: 7.59

Q: O=C(CCCN1CCC(CCO)(c2ccc(Cl)cc2)C1)c1ccc(F)cc1 (configuration not stated) was tested. Which pKi (D(3) dopamine receptor) did it give?
A: 7.49

Q: What about the pKi (D(4) dopamine receptor) of the same molecule?
A: 6.71

Q: Which results are given for O=C(CCC[n+]1ccc(-c2ccc(Cl)cc2)cc1)c1ccc(F)cc1?
A: pKi (D(3) dopamine receptor): < 6; pKi (D(4) dopamine receptor): < 6

Q: Which pKi (D(3) dopamine receptor) does the source give for O=C(CCCN1CCC(C(O)c2ccc(Cl)cc2)CC1)c1ccc(F)cc1 (configuration not stated) here?
A: 7.11

Q: What about the pKi (D(4) dopamine receptor) of the same molecule?
A: 6.91

Q: Which pKi (D(3) dopamine receptor) does the source give for CN(CCCC(=O)c1ccc(F)cc1)CCCC(O)c1ccc(Cl)cc1 (configuration not stated) here?
A: 6.79

Q: And the pKi (D(4) dopamine receptor)?
A: 6.72

Q: With O=C(CCCN1CCC(c2ccc(Cl)cc2)C1)c1ccc(F)cc1 (configuration not stated) as the molecule, how does the pKi (D(4) dopamine receptor) read?
A: 7.82

Q: O=C(CCCN1CCC(CO)(c2ccc(Cl)cc2)C1)c1ccc(F)cc1 (configuration not stated) was tested. Which pKi (D(3) dopamine receptor) did it give?
A: 6.78

Q: What about the pKi (D(4) dopamine receptor) of the same molecule?
A: 7.62

Q: How did the pKi (D(3) dopamine receptor) turn out when O=C(CCCN1CCC(O)(Cc2ccc(Cl)cc2)CC1)c1ccc(F)cc1 was run?
A: 8.05

Q: And the pKi (D(4) dopamine receptor)?
A: 7.23
